This note sets out measurements from US20260028356A1, “1,3,4,7-TETRAHYDRO-2H-PYRROLO[3',2':5,6]PYRIDO[2,3-B][1,4]OXAZEPINE BCL-2 INHIBITORS” (AbbVie Inc., priority 2022, published 2026).

As a reminder, the EC50 is the concentration that produces a half-maximal response. High values mean a need for much substance, low ones an effect from little substance. A word on the AUC: it is the area under the concentration-time curve, a measure of exposure. What is called MRT is a mean duration of stay, worked out from the concentration-time curve. The term Tmax denotes the time at which the peak concentration occurs.

One data set has as its system Molt-4 cells. The data set can be described thus: Cell Viability Assay (CellTiter-Glo) in Molt-4 cells (counter screen). The class given is cell-based. The following applies: 24 hours, 10% Human Serum. As to the method: (§1) The acute lymphoblastic leukemia (ALL) human cell line RS4;11 (ATCC, Manassas VA) was used as the primary human cell line to assess the cellular activity of compound of the present Examples in vitro and their efficacy in vivo. […] The acute lymphoblastic leukemia cell line Molt-4, which is derived from immature T-lymphoid cells (T-ALL), was used as a counter screen assay.
(§2) 3000 Cells (0.1×10^6/mL) were seeded in each well of 384-well plate and were treated for 24 hours in a humidified chamber with 5% CO2. Cell viability was determined by CellTiter-Glo as described by the manufacturer's instructions (Promega Corporation, Madison, WI, USA).
Background: In ATP-based viability assays light output follows the ATP content of the culture.

Data set [1] can be described thus: Bioavailability study: pharmacokinetics after single intravenous or oral dose in mouse. The class given is in vivo, CD-1 mice (male). As to the method:
Studies were conducted to evaluate the pharmacokinetic profiles of Example 25 herein and Example 2 in WO 2019/040550 after single intravenous or oral dose in mouse. CD-1 mice (male) were obtained from Charles River Laboratories (Wilmington, MA).
The pharmacokinetics of Example 25 herein and Example 2 in WO 2019/040550 were evaluated following single 1 mg/kg intravenous or oral doses in mouse. Example 25 herein and Example 2 in WO 2019/040550 were prepared as a solution in DMSO:Tween 80:PEG-400:Dextrose 5% in Water (5:5:20:70, v/v) for the IV and oral dose mouse studies. The intravenous dose was administered as a slow bolus to the penile vein under isoflurane anesthesia. The oral doses were administrated by gavage. Serial blood samples were obtained […], 0.25, 0.5, 1.0, 4, 6, 9, 12, 24, 32 and 48 hours post dosing and […]. Plasma was separated by centrifugation and stored frozen (<−15° C.) until analysis.
HPLC-MS/MS bioanalytical methods were utilized for the quantitation of Example 25 herein and Example 2 in WO 2019/040550 concentration in plasma. The analytical methods used protein precipitation to extract compound from plasma. All samples were combined with a minimum two volume equivalents of organic solvent containing internal standard, vortexed and then centrifuged to pellet the proteins. Supernatants were used for subsequent analysis by liquid chromatography-tandem mass spectrometry (LC-MS/MS). Studies involving quantitative analysis employed spiked standards in plasma that were processed simultaneously with the samples.
Analytes were separated using reverse phase chromatography on a C8 or C18 column prior to analysis on an API5500m (or higher) mass spectrometer with a Turbo-Ion Spray source. Peak areas were determined using Sciex Analyst™ 1.6 (or higher) software or Sound Analytics DiscoveryQuant™ 2.0 (or higher) software. Actual concentrations (when required) were calculated by regression analysis of the peak area ratio (parent/internal standard) of the spiked standards versus concentrations.
Peak plasma concentrations (Cmax) and the time to peak plasma concentration (Tmax) were determined directly from the plasma concentration data for each animal. The compound plasma concentration data were submitted to multi-exponential curve fitting using WinNonlin software. The area under the plasma concentration-time curve from 0 to t hours after dosing (AUC0-t, t=time of the last measurable plasma concentration) was calculated using the linear trapezoidal rule. The residual area extrapolated to infinity, determined as the final measured plasma concentration (Ct) divided by the terminal plasma elimination rate constant (β), was added to the AUC0-t to produce the total area under the curve (AUC0-∞). The apparent total plasma clearance (CLp) was calculated by dividing the administered dose by the AUC0-∞. Half-life (t1/2) was determined with the following calculation: t1/2=ln (2)/elimination rate constant. The initial volume of distribution (Vc) was calculated as the dose divided by the extrapolated concentration at time=0 (C0). The volume of distribution at steady state, Vss, was estimated as a product of the total plasma clearance (CLp) and the mean residence time (MRT); the terminal-phase volume of distribution, Vβ, was derived from the total plasma clearance value (CLp) divided by the terminal plasma elimination rate constant ((3). Oral bioavailability (F) was calculated as the dose-normalized AUC0-∞ (AUC0-∞/D) from the oral dose divided by the corresponding dose normalized AUC0-∞ from intravenous dosing.

The subject of the next data set is RS4;11 cells. The data set is described as follows: Cell Viability Assay (CellTiter-Glo) in RS4;11 cell line. The class given is cell-based. The note with it: 24 hours, 10% Human Serum. The protocol:
as §1, §2

Where “and” joins values, the source holds several entries; their conditions need not be identical. Equal values may be shown once. Some results are limits rather than exact numbers.

The compound `C[C@H]1CCC(CNc2ccc(S(=O)(=O)NC(=O)c3ccc(N4CCN5CC6=C(c7ccc(Cl)cc7)CC(C)(C)C[C@H]6OCCCOC[C@@H]5C4)cc3N3CCCOc4nc5[nH]ccc5cc43)cc2[N+](=O)[O-])OC1` (stereo partly drawn) [Example 23, 4-((4aS,10aR)-14-(4-chlorophenyl)-12,12-dimethyl-1,2,4a,5,8,9,10a,11,13,15-decahydro-7H,12H-benzo[f]pyrazino[2,1-c][1,8]dioxa[4]azacycloundecin-3(4H)-yl)-2-(3,4-dihydro-2H-pyrrolo[3′,2′:5,6]pyrido[2,3-b][1,4]oxazepin-1(7H)-yl)-N-((4-((((2R,5S)-5-methyltetrahydro-2H-pyran-2-yl)methyl)amino)-3-nitrophenyl)sulfonyl)benzamide] displayed an EC50 with Molt-4 cells greater than 10000 nM.

Turning to `CO[C@@H]1CC[C@@H](CNc2ccc(S(=O)(=O)NC(=O)c3ccc(N4CCN5CC6=C(c7ccc(Cl)cc7)CC(C)(C)C[C@H]6OCCCOC[C@@H]5C4)cc3N3CCCOc4nc5[nH]ccc5cc43)cc2[N+](=O)[O-])OC1` [Example 25, 4-((4aS,10aR)-14-(4-chlorophenyl)-12,12-dimethyl-1,2,4a,5,8,9,10a,11,13,15-decahydro-7H,12H-benzo[f]pyrazino[2,1-c][1,8]dioxa[4]azacycloundecin-3(4H)-yl)-2-(3,4-dihydro-2H-pyrrolo[3′,2′:5,6]pyrido[2,3-b][1,4]oxazepin-1(7H)-yl)-N-((4-((((2S,5R)-5-methoxytetrahydro-2H-pyran-2-yl)methyl)amino)-3-nitrophenyl)sulfonyl)benzamide], in data set [1] (IV 1 mg/kg, individual mouse), the exposure (AUC) was 11200 ng·h/mL and 12900 ng·h/mL; the CLp was 1.28 mL/min/kg; the MRT came out at 10 h; the Vβ is 1.0 L/kg and 0.90 L/kg. In data set [1] (PO 1 mg/kg, individual mouse), the AUC is 4330 ng·h/mL and 4490 ng·h/mL; the Tmax amounted to 4.0 h; the t1/2 is 8.7 h and 10 h. Besides, the Tmax in data set [1] (PO 1 mg/kg, mean) was 4.0 h.

`COC1(CNc2ccc(S(=O)(=O)NC(=O)c3ccc(N4CCN5CC6=C(c7ccc(Cl)cc7)CC(C)(C)C[C@H]6OCCCOC[C@@H]5C4)cc3N3CCCOc4nc5[nH]ccc5cc43)cc2[N+](=O)[O-])CCOCC1` [Example 26, 4-((4aS,10aR)-14-(4-chlorophenyl)-12,12-dimethyl-1,2,4a,5,8,9,10a,11,13,15-decahydro-7H,12H-benzo[f]pyrazino[2,1-c][1,8]dioxa[4]azacycloundecin-3(4H)-yl)-2-(3,4-dihydro-2H-pyrrolo[3′,2′:5,6]pyrido[2,3-b][1,4]oxazepin-1(7H)-yl)-N-((4-(((4-methoxytetrahydro-2H-pyran-4-yl)methyl)amino)-3-nitrophenyl)sulfonyl)benzamide] showed an EC50 with Molt-4 cells greater than 10000 nM.

As to `CC1(C)CC(c2ccc(Cl)cc2)=C2CN3CCN(c4ccc(C(=O)NS(=O)(=O)c5ccc(NC[C@@H]6CC[C@@H](O)CO6)c([N+](=O)[O-])c5)c(N5CCCOc6nc7[nH]ccc7cc65)c4)C[C@H]3COCCCO[C@@H]2C1` [Example 27, 4-((4aS,10aR)-14-(4-chlorophenyl)-12,12-dimethyl-1,2,4a,5,8,9,10a,11,13,15-decahydro-7H,12H-benzo[f]pyrazino[2,1-c][1,8]dioxa[4]azacycloundecin-3(4H)-yl)-2-(3,4-dihydro-2H-pyrrolo[3′,2′:5,6]pyrido[2,3-b][1,4]oxazepin-1(7H)-yl)-N-((4-((((2S,5R)-5-hydroxytetrahydro-2H-pyran-2-yl)methyl)amino)-3-nitrophenyl)sulfonyl)benzamide], the EC50 with RS4;11 cells came out at 0.329 nM; in the data set with Molt-4 cells, 535 nM.
